We go through six molecules from patent US20050171353A1, “Piperidine or 8-aza-bicyclo[3.2.1]oct-3-yl derivatives useful as modulators of chemokine receptor activity (especially ccr5)” (priority 2002, published 2005).

As a reminder, the IC50 is the concentration that gives 50% inhibition.

The assay addresses recombinant human CCR5 receptor (Homo sapiens, UniProt P51681). The experiment in a line: in vitro radioligand binding assay (inhibition of binding of RANTES or MIP-1α), scintillation proximity. Particulars: membranes from Chinese hamster ovary cells expressing recombinant human CCR5; 0.1 nM iodinated RANTES or MIP-1α; average if tested more than once. As for the experimental part: The ability of compounds to inhibit the binding of RANTES or MIP-1α was assessed by an in vitro radioligand binding assay. Membranes were prepared from Chinese hamster ovary cells which expressed the recombinant human CCR5 receptor. These membranes were incubated with 0.1 nM iodinated RANTES or MIP-1α, scintillation proximity beads and various concentrations of the compounds of the invention in 96-well plates. The amount of iodinated RANTES or MIP-1α bound to the receptor was determined by scintillation counting.
In Table IV the results are presented as Pic50 values.
(In general: SPA uses beads or plates that emit light when radiolabelled molecules are held near them.)

Sequence of recombinant human CCR5 receptor (P51681 whole entry): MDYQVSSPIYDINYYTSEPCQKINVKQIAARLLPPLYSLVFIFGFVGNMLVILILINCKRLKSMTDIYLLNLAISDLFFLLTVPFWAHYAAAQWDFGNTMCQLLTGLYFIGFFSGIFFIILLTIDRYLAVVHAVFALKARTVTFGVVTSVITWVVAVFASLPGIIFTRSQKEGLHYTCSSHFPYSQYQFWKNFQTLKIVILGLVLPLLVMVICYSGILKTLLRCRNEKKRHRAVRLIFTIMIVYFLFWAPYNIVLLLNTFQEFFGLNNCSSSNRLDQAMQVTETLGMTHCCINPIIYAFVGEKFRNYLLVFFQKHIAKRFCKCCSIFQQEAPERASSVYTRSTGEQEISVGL

On to `CCN(C(=O)Cc1ccc(S(C)(=O)=O)cc1)C1CCN(CC[C@H](NC(=O)C2CCC(F)(F)CC2)c2ccccc2)CC1` [Table 1 Compound 1, (S)—N-[1-(3-phenyl-3-[4,4-difluorocyclohexylcarboxyamino]propyl)-4-piperidinyl]-N-ethyl-4-methanesulfonylphenylacetamide], for which the Pic50 was determined as 8.95.

As for `CCN(C(=O)Cc1ccc(S(C)(=O)=O)cc1)C1CCN(CC[C@H](NC(=O)N2CC[C@@H](F)C2)c2ccccc2)CC1` [Table 1 Compound 3, (S)—N-[1-(3-Phenyl-3-[(R)-3-fluoropyrrolidin-1-ylcarboxyamino]propyl)-4-piperidinyl]-N-ethyl4-methanesulfonylphenylacetamide], the Pic50 came out at 7.76.

For the molecule `CCN(C(=O)Cc1ccc(S(C)(=O)=O)cc1)[C@@H]1C[C@H]2CC[C@@H](C1)N2CC[C@H](NC(=O)C1CCC(F)(F)CC1)c1ccccc1` [Table 2 Compound 1, (S)-4,4-difluoro-cyclohexanecarboxylic acid[3-(3-{ethyl-[2-(4-methanesulfonyl-phenyl)-acetyl]-amino}-8-aza-bicyclo[3.2.1]oct-8-yl-exo)-1-phenyl-propyl]-amide], the IC50 was 3.31 nM.

Turning to “N-[1-((4S)-4-Phenyl-4-[3,3-difluorocyclobutylcarboxyamino]but-2-yl)-4-piperidinyl]-N-ethyl-4-methanesulfonylphenylacetamide hydrochloride [Table 3 Compound 8]”, the Pic50 is 9.15.

For the molecule `CCN(C(=O)Cc1ccc(S(C)(=O)=O)cc1)C1CCN(CC[C@H](NC(=O)N2CCC(F)CC2)c2ccccc2)CC1` [Table 1 Compound 2, (S)—N-[1-(3-phenyl-3-[4-fluoropiperidin-1-ylcarboxyamino]propyl)-4-piperidinyl]-N-ethyl-4-methanesulfonylphenylacetamide], the Pic50 was 7.68.

Take “(S)—N-[1-(3-[3,5-Difluorophenyl]-3-[3,3-difluorocyclobutylcarboxyamino]propyl)-4-piperidinyl]-N-ethyl-4-methanesulfonylphenylacetamide hydrochloride [Table 1 Compound 6]”: the Pic50 came out at 8.65.
